According to patent publication US10913732B2, “Furoxans as therapies for neurodegenerative disorders” (The University of Toledo, priority 2016, dated 2021):

Columns and labels:
[1] = In vivo pharmacokinetics, plasma and forebrain levels by LC-MS/MS; set-up: species or system mice
Procedure: FIGS. 6A-6C: The ratio of the AUC of the MRM transition for 31b versus 41b was calculated and the resulting values were normalized based on total protein concentration of samples (determined by Bradford assay). N=4 per group. Data shown as SEM, analysis by one way ANOVA with Tukey's post-test. *=p<0.05. Half-life's were calculated based on first order exponential decay.
31b was administered to mice and specimens were processed according to FIG. 4A. Levels of 31b were determined in the plasma and forebrain after intraperitoneal (ip) and oral (po) administration at varying post-administration time points (1, 2, or 12 hr [N=4 per cohort]). […] A deuterated (d^4) analog of 31b, designated 41b, was synthesized for LC-MS studies. Deuterated internal standards are required for absolute quantitation via LC-MS/MS and are desirable for because they have identical physiochemical properties to their non-deuterated kin, but may be distinguished based on molecular weight. Inclusion of 41b allows for control of extraction efficiency, technique proficiency, and instrumentation sensitivity. Extraction methodology and tandem LC-MS/MS parameters (optimized MRM transitions) were developed and validated via extraction of blank brain tissue spiked with 31b and 41b to develop a calibration curve. In this initial evaluation, the appropriate forebrain and plasma samples were spiked with a fixed concentration of 41b, homogenized in extraction buffer, applied to a solid phase resin cartridge, eluted, concentrated, reconstituted, and analyzed via MRM monitoring using LC-MS/MS. […] There were no significant differences in levels of 31b in the brain (B) versus plasma (P), with an average B:P ratio of 1.6 (±0.8). […] Without wishing to be bound by theory, it is believed that low oral bioavailability of 31b is the result of rapid 1st pass metabolism, since the microsomal stability studies indicate poor hepatic stability. The use of common dosage form strategies likely results in improved oral bioavailability. Alternative administration routes, including intranasal, are also believed to result in high brain bioavailability based on the relativity high lipophilicity of the embodiments tested. […] Moreover, the physiochemical properties proposed as being appropriate for CNS drugs are appropriate. The long residence time of the furoxan (visible in the brain after 12 hr), indicates an ideal scenario for daily dosing.
Forebrain tissue (˜30 mg) was homogenized in 1 ml of tissue extraction buffer (Invitrogen) containing a protease inhibitor cocktail (PIC). 100 μL of the resulting homogenate (or 100 μL of plasma) was spiked with 2% Formic acid (200 μL, containing 41b [0.5 μM]—internal standard) and vortexed for 1 min. The mixture was applied to an Evolute Express ABN column (Biotage) and filtered through via vacuum filtration. The matrix was washed with dH2O (1 mL) and analytes eluted with MeOH (1 mL). The resulting extract was evaporated to dryness by passing over air and reconstituted in ACN/dH2O (100 μL). A 10 μL injection was analyzed by LC-MS/MS. Analysis was carried out on a Shimadzu Nexera XR HPLC coupled with a Shimadzu 8050 triple quadrupole mass spectrometer. LC utilized a Kinetex-core column (Phenomenex): 2.6 um C18 100 A, 100×4.6 mm. HPLC Method: solvents, H2O [0.1% FA]—solvent A; MeOH [0.1% FA]—solvent B; flow rate 1.0 mL/min (utilized Tsplitter, mass spectrometer effective flow rate 0.4 mL/min). Gradient: t=2 min, 5% B; t=6 min, 95% B; t=7.0 min, 95% B; t=7.01, 5% B. Stop time 10 min. Diverter valve was utilized and eluent only averted to MS from 5 min-8 min. Quantity was determined based on the AUC of the internal standard versus the AUC of the analyte peak.

[2] = system: CREB phosphorylation at Ser-133; assay: In vivo pharmacodynamics, hippocampal pCREB:tCREB by ELISA; details: scopolamine treated mice plus 31b 20 or 40 mg/kg ip
[3] = Thiol reactivity by incubation with excess thiol, HPLC-UVvis; type: physicochemical
Procedure: FIGS. 5A-5B: Thiol reactivity was analyzed via incubations containing 31b (250 μM) in the presence or absence of excess (5 mM) cysteine (or N-acetylcysteine [NAc]) in PBS (50 mM, pH
(§1) 7.4) at 37° C. (FIG. 5A). Incubations were placed in a temperature controlled HPLC autosampler and aliquots are analyzed by HPLC-UVvis periodically for 2-24 hr. Percent furoxan remaining was determined based on the area under the curve (AUC) of the HPLC UV-absorbance spectrum. Similarly, rat liver microsomes were incubated with 31b in the presence or absence of NADPH to determine microsomal stability (FIG. 5B). Warfarin and verapamil were used as slow and fast metabolizing controls.
Without wishing to be bound by theory, it is believed that furoxans require thiol attack to produce NO. […] Thiol reactivity of 31b was assessed via incubations with excess thiol (N-acetylcysteine [NAc]) at physiological pH and temperature using a temperature controlled HPLC autosampler. […]
(§2) HPLC method: solvents, H2O [0.1% FA]—solvent A; MeOH [0.1% FA]—solvent B; flow rate 1.0 mL/min. […] As described above, thiol reactivity was analyzed via incubations containing the furoxan (250 μM) in the presence or absence of excess (5 mM) cysteine (or N-acetylcysteine [NAc]) in PBS (50 mM, pH 7.4) at 37° C. Incubations were placed in a temperature controlled HPLC autosampler and aliquots were analyzed by HPLC-UVvis periodically for 2-24 hr. […]

[4] = Rat liver microsome metabolic stability; type: in vitro ADME; details: rat liver microsomes, read-out: RLM t1/2
Procedure: as §1
Metabolic stability is an important parameter for determining the drug-like properties of a molecule, especially when trying to develop attenuated furoxans which require reaction with thiols to produce an effect. The metabolism of 31b in the presence of rat liver microsomes (RLM) was studied. Verapamil and warfarin were used as well-characterized controls. […]
as §2, with “hr. Percent furoxan remaining was determined based on the area under the curve (AUC) of the HPLC UV-absorbance spectrum.” for “hr.”

Structure (SMILES): CC1CCN(Cc2no[n+]([O-])c2-c2ccc(F)cc2)CC1 [31b]
- Amounts in ip-treated mice compared to oral gavage ([1]; mice): significantly higher amounts in ip-treated mice
- Levels in plasma and forebrain after 12 h ([1]; mice, ip and po): detectable levels
- Oral bioavailability ([1]; mice, po): low
- Kp ([1]; mouse, forebrain versus plasma, other: intraperitoneal (ip) and oral (po), averaged together, mice, read-out: Average B:P ratio (brain versus plasma)): 1.6
- Brain penetration ([1]; mouse, in vivo): significant brain penetration
- half-life ([1]; mouse, plasma and forebrain, intraperitoneal and oral, mice, ip and po, first order exponential decay, read-out: In vivo t1/2 for brain and plasma): 50 to 110 min
- Hippocampal pCREB:tCREB ratio [2]: trends toward reversal
- Stability in the presence of general cellular thiols, such as GSH and cysteine [3]: extremely stable
- Change in amount of furoxan with excess thiol ([3]; 250 μM, 5 mM N-acetylcysteine, PBS pH 7.4, 37° C., after 24 hr): no measurable change
- half-life [4]: ~11 min
